# Test results published in PMC11335211, “In vivo photocontrol of orexin receptors with a nanomolar light-regulated analogue of orexin-B” (Cellular and Molecular Life Sciences: CMLS, 2024).
# *1 amine or outer side, *2 acyl side, *3 side chain or, on linkers, in order; H or OH if unused. Where a SMILES comes first, the peptide text is derived from it. [ ]: non-standard residue; d: D form. X1 = O=C(Cc1cccc(N=Nc2cccc(CN[*:1])c2)c1)[*:2]
# How the values were obtained:
# [1] = tested on: OX1; conditions: in words; cited from earlier work
# Description: (§1) Among these, a family of neuroexcitatory peptides known as orexins (or hypocretins) is critically involved in regulating sleep and wakefulness, energy homeostasis, and reward. Orexin signaling is mediated by two closely related G protein-coupled receptors (GPCRs) – OX1 and OX2 (orexin) receptors – which are strongly conserved among mammals. While orexin cell bodies are concentrated in the hypothalamic area, orexin receptors are widely expressed in the central nervous system (CNS). Their endogenous ligands are two peptides, named ...
# [2] = tested on: OX2; conditions: in words; cited from earlier work
# Description: as §1
# [3] = tested on: OX1 receptor; conditions: membrane-based binding assay; ref Langmead et al., 5 (SI); cited from earlier work
# Description: Although the lack of binding with all three forms of OX-B - including the native ligand control - came unexpected, similar findings had already been observed for the OX1 receptor.
# [4] = design: method as in 2 sources, one per row (each row's own in cited_ref): ref 75–77 = [75]; PMID 10087007; 75. Kastin AJ Akerstrom V Orexin A but not orexin B rapidly enters brain from blood by simple diffusion J Pharmacol Exp Ther 1999 289 219 223 10087007 || [76]; PMID 12626669; doi:10.1113/jphysiol.2002.038729; 76. John J Wu M-F Kodama T Siegel JM Intravenously administered hypocretin-1 alters brain amino acid release: an in vivo microdialysis study in rats J Physiol 2003 548 557 562 10.1113/jphysiol.2002.03 || [77]; PMID 14746374; doi:10.1093/sleep/26.8.953; 77. Fujiki N Yoshida Y Ripley B Mignot E Nishino S Effects of IV and ICV hypocretin-1 (orexin A) in hypocretin receptor-2 gene mutated narcoleptic dogs and IV hypocretin-1 replacement therapy in a hyp ||| ref 75 = [75]; PMID 10087007; 75. Kastin AJ Akerstrom V Orexin A but not orexin B rapidly enters brain from blood by simple diffusion J Pharmacol Exp Ther 1999 289 219 223 10087007; conditions: intravenous administration or blood-free perfusion in mammals; cited from earlier work
# [5] = molecular target: T1, hOX2 (Homo sapiens, UniProt O43614); assay: Radioligand competitive binding assay ([3H]EMPA); design: expressed in transfected cells; membranes
# T1 sequence (O43614 1-444): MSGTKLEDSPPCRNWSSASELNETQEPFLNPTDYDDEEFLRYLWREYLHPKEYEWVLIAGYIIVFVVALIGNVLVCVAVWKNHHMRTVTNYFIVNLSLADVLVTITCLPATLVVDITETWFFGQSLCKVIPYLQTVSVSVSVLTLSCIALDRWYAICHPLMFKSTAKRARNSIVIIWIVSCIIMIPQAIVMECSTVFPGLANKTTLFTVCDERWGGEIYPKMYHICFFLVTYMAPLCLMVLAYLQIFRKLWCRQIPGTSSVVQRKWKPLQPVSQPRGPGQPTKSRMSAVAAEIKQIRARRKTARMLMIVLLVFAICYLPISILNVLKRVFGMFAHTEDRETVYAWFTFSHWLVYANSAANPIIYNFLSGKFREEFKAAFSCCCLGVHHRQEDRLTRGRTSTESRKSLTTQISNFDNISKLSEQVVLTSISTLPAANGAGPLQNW
# Description: The affinity towards OX2 was studied in a competitive radioligand binding assay on membranes derived from HEK-293 cells stably transfected with the human receptor. [^3H]EMPA, an OX2-selective orthosteric antagonist, was used as radioactive tracer to quantify residual binding after competitive displacement in the presence of the unlabeled ligands.^3 Wild-type OX-B and almorexant, a non-selective OX1 and OX2 antagonist, served as controls.^4
# [^3H]EMPA (specific activity 27 Ci/mmol) and almorexant were synthesized at Janssen Research & Development LLC (San Diego, CA), while orexin-B was obtained from Bachem (Torrance, CA).
# Cell membranes were prepared from a stable pool of HEK-293 cells transfected with the human OX2. Test compounds were dissolved in DMSO (10 mM stock solutions) and diluted in Dulbecco’s phosphate-buffered saline supplemented with 0.1% bovine serum albumin (BSA). Competition studies were performed by incubating the membranes with the OX2-selective antagonist [^3H]EMPA (2 nM) and different concentrations of the test compounds (7 concentrations ranging from 10^−9 to 10^−6 M). After a 60-minute incubation at rt, binding reactions were filtered to separate the excess of free ligand from the membranes. Filters were then counted for radioactivity in a scintillation counter. Nonspecific binding was determined in the presence of 10 µM almorexant.
# Specific binding was determined and plotted as a function of the concentration of the compound using GraphPad Prism v8.3.1 (GraphPad Software, San Diego, USA). Data were analyzed by nonlinear regression using a one-site competition model.
# [6] = Resistance to photofatigue; type: physicochemical; conditions: several UV (365 nm)/blue (455 nm) cycles of 3 min; 25 µM in PBS pH 7.4, 25 °C; UPLC
# Procedure: Stability to photodegradation was evaluated by exposing a phOX sample (25 µM in PBS at pH 7.4 and 25 °C) to alternating intervals (3 min each) of UV and visible light illumination (365 and 455 nm, respectively). The trans-cis isomeric distributions under different illumination conditions were measured by integrating the area of the corresponding peaks after UPLC analysis. These values were then converted to isomer percentages and plotted. After several cycles, no reduction could be observed in the isomers’ peak area, thus confirming photorexin stability to photodegradation.
# [7] = molecular target: T2, human OX1 (Homo sapiens, UniProt O43613); assay: FLIPR Tetra calcium mobilization assay, CHO-K1 cells; type: cell-based; conditions: CHO-K1-hOX1; FLIPR; in words
# T2 construct: expressed in transfected cells
# T2 sequence (O43613 1-425): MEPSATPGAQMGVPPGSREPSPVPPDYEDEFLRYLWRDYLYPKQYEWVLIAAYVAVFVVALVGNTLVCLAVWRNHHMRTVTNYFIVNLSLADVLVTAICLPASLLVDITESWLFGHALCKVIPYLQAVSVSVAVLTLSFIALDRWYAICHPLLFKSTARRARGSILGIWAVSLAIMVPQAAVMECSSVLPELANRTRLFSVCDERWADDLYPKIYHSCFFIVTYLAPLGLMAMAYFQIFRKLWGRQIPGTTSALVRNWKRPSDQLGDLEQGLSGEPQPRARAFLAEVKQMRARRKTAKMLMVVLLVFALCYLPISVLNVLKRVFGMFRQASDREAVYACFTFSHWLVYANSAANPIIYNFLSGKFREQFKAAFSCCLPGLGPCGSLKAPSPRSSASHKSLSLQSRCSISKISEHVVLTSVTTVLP
# Procedure: (§2) Samples of trans phOX were kept in the dark both prior to and during the whole duration of the experiment to avoid undesired photoconversion caused by environmental light. Unless differently stated, data for cis phOX were obtained by pre-illuminating the samples for 10 min with 365 nm UV light.
# (§3) PFSK-1 cells were cultured in RPMI 1640 supplemented with 10% fetal bovine serum (FBS), 100 units/ml penicillin, and 100 µg/ml streptomycin. Chinese hamster ovary-K1 (CHO-K1) cells stably transfected to express human OX1 were cultured in Dulbecco’s Modified Eagle’s Medium/Nutrient Mixture F-12 Ham (DMEM/F12 1:1) medium supplemented with 10% FBS and 600 µg/ml G418. All cell lines were grown at 37 °C in 5% CO2.
# (§4) Cells were plated at 50,000 cells/well in 96-well black-wall plates with poly-D-lysine-coated clear bottoms and grown overnight at 37 °C in 5% CO2. […] Calcium-mediated changes in fluorescence were monitored in a Fluorometric Imaging Plate Reader (FLIPR) Tetra instrument (Molecular Devices, USA). Fluorescence intensity was measured for 12 s to establish baseline fluorescence before addition of the test compound (20 µL/well) and further readings for a total of 155 s (excitation at 470–495 nm, detection at 515–575 nm). […]
# (§5) Raw data from the FLIPR Tetra was exported as the difference between maximum and minimum fluorescence observed for each well. […] Agonist potencies (EC50) are expressed as means + SD.
# [8] = molecular target: T1, hOX2; assay: FLIPR Tetra calcium mobilization assay, PFSK-1 cells; type: cell-based; conditions: PFSK-1, hOX2; FLIPR; in words
# Procedure: as §2, §3, §4, §5
# [9] = molecular target: T1, hOX2; assay: In vitro single-cell calcium imaging, tsA201-hOX2; type: cell-based; design: expressed in transfected cells; host or cells: tsA201 (transformed human kidney cells), transient, co-transfected with R-GECO1; conditions: 100 nM, AUC normalized to dark-adapted phOX, mean, n = 20 cells
# Procedure: Transformed human kidney tsA201 cells were purchased from the European Collection of Authenticated Cell Culture. Cells were maintained at 37 °C in a humidified atmosphere with 5% CO2 and grown in Dulbecco’s Modified Eagle’s Medium/Nutrient Mixture F-12 Ham (DMEM/F12 1:1) medium (Life Technologies), supplemented with 10% FBS (Life Technologies) and 1% penicillin/streptomycin (Sigma-Aldrich).
# Clones of GFP-labelled orexin receptors were kindly provided by Prof. Jyrki Kukkonen and the exact protein sequences have been reported by Putula et al.. The plasmid for the genetically encoded calcium indicator R-GECO1 was acquired from Addgene. Cells were transiently transfected with hOX1 or hOX2 receptors and R-GECO1 with X-tremeGENE 9 DNA Transfection Reagent (Roche Applied Science) following the manufacturer’s instructions. After 24 h, cells were harvested with accutase (Sigma-Aldrich) and plated onto 16-mm glass coverslips (Fisher Scientific) pre-treated with poly-L-Lysine (Sigma-Aldrich) to allow cell adhesion. Experiments were performed using pre-confluent cultures between 48 and 72 h after transfection. […]
# Images were analyzed using FIJI (ImageJ). Data were analyzed and processed using GraphPad Prism v8.3.1. Statistical differences were determined by one-way ANOVA followed by Tukey’s multiple comparison post-hoc test. […]
molecule,measurement,setting,value
"OX-A: endogenous orexin peptide with two disulfide bridges (QPLPDCCRQKTCSCRLYELLHGAGNHAAGILTL; not fully specified; Orexin-A; UniProt O43612 34-66, looked up)",affinity at OX1,[1],high affinity
same,affinity at OX2,[2],high affinity
same,occupation of OX1 orthosteric site versus [3H]SB-674042,[3],failed to occupy the receptor orthosteric site
same,blood-brain barrier penetration,[4],penetrate the blood-brain barrier by simple diffusion
CNC(=O)[C@@H](c1ccccc1)N1CCc2cc(OC)c(OC)cc2[C@@H]1CCc1ccc(C(F)(F)F)cc1 [almorexant],Ki,[5],3 nM
same,inhibition of [3H]EMPA binding,"[5]; control ligands, HEK-293-hOX2 membranes, [3H]EMPA 2 nM, 60 min rt, 10^-9 to 10^-6 M, two independent experiments in triplicates",fully displaced the radioligand
CC[C@H](C)[C@H](NC(=O)CNC(=O)[C@H](C)NC(=O)[C@H](C)NC(=O)Cc1cccc(N=Nc2cccc(CNC(=O)CNC(=O)[C@H](CO)NC(=O)[C@H](C)NC(=O)[C@H](CCC(N)=O)NC(=O)[C@H](CC(C)C)NC(=O)[C@H](CC(C)C)NC(=O)[C@H](CCCNC(=N)N)NC(=O)[C@H](CCC(N)=O)NC(=O)[C@H](CC(C)C)NC(=O)[C@H](CCCNC(=N)N)NC(=O)CNC(=O)[C@H](CCC(N)=O)NC(=O)[C@H](CC(C)C)NC(=O)CN)c2)c1)C(=O)N[C@@H](CC(C)C)C(=O)N[C@H](C(=O)N[C@@H](CCSC)C(N)=O)[C@@H](C)O [photorexin] (H-GLQGRLQRLLQASG[X1]AAGILTM-NH2),degradation or bleaching over light cycles,[6],without significant degradation or bleaching
same,potency,[7],high nanomolar potency
same,potency,[8],high nanomolar potency
same,"retained activity under UV, relative to dark-adapted peptide",[9]; 365 nm (cis-enriched),6%
same,"recovery of calcium response under blue light, relative to initial response",[9]; 455 nm after UV,52%
